A value given as a limit tells only on which side of the number the result lay.

This experiment concerns Corynespora cassiicola. Description: Corynespora cassiicola liquid culture growth inhibition (PDB, 96-well microtiter plate, photometric at 620 nm). The settings on record: 24 C, 3-4 days, compared to untreated control. The experiment is classed as cell-based. The protocol:
Conidia of the fungus from cryogenic storage were directly mixed into nutrient broth (PDB potato dextrose broth). A DMSO solution of the test compounds was placed into a microtiter plate (96-well format) and the nutrient broth containing the fungal spores was added to it. The test plates were incubated at 24 C and the inhibition of growth (% control of Corynespora cassiicola) was determined photometrically after 3-4 days at 620 nm. The activity of a compound is derived by comparing the inhibition of growth in the treated test solution to the growth in the untreated check. The concentration of the compounds was 6.7, 2.2, 0.74, 0.25, 0.082 and 0.027 ppm.
As a reminder, the inhibition is the relative decrease from the control value, in per cent. Low values mean a weak effect, high ones a strong effect. The compound `Cc1cccc2c1ncn2C1=NC(C)(C)C(F)(F)c2ccccc21` [Compound 1] came in with an inhibition at 6.7 ppm not below 70%.

With `Cc1ccc2c(ncn2C2=NC(C)(C)C(F)(F)c3ccccc32)c1C` [Compound 2], the inhibition at 6.7 ppm is not below 70%.

The compound `Cc1c(F)ccc2c1ncn2C1=NC(C)(C)C(F)(F)c2ccccc21` [Compound 3] came in with an inhibition at 6.7 ppm not below 70%.

Compound `Cc1ccc2c(ncn2C2=NC(C)(C)C(F)(F)c3c(F)cccc32)c1C` [Compound 4] registered an inhibition at 6.7 ppm not below 70%.

As for `Cc1cccc2c1ncn2C1=NC(C)(C)C(F)(F)c2cc(Cl)ccc21` [Compound 5], the inhibition at 6.7 ppm is not below 70%.

Take `CC1(C)N=C(n2cnc3c4c(ccc32)CCC4)c2ccccc2C1(F)F` [Compound 6]: the inhibition at 6.7 ppm is not below 70%.
